Reference: PubChem BioAssay (NCI)
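Test compounds were applied to cells in 96-well plates for 48 hours at 5 doses. GI50: concentration for 50% inhibition of growth. The concentration for full growth arrest is given as TGI.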

Assays:
Assay in all cases: NCI tumour cell line growth inhibition, 48 h
UO-31 renal = system: UO-31 renal
HCT-116 colon = system: HCT-116 colon
SF-295 CNS = system: SF-295 CNS
UACC-62 melanoma = system: UACC-62 melanoma
TK-10 renal = system: TK-10 renal
M14 melanoma = system: M14 melanoma
NCI/ADR-RES ovarian = system: NCI/ADR-RES ovarian
MDA-MB-231 breast = system: MDA-MB-231 breast
SF-268 CNS = system: SF-268 CNS
BT-549 breast = system: BT-549 breast

SMILES: COc1cc(C2C(C(=O)O)=C(COC(C)=O)Oc3cc4c(cc32)OCO4)cc(OC)c1OC (stereo unspecified)
- TGI (UO-31 renal): > 100 µM
- TGI (HCT-116 colon): > 100 µM
- TGI (SF-295 CNS): > 100 µM
- TGI (UACC-62 melanoma): > 100 µM
- TGI (TK-10 renal): > 100 µM
- TGI (M14 melanoma): > 100 µM

SMILES: CO/N=C(\C)COc1ccc2c(=O)c(-c3ccccc3)coc2c1
- GI50 (NCI/ADR-RES ovarian): 14.5 µM
- TGI (NCI/ADR-RES ovarian): 50 µM
- GI50 (UO-31 renal): 22.2 µM
- TGI (UO-31 renal): 46.3 µM
- GI50 (HCT-116 colon): 14.8 µM
- TGI (HCT-116 colon): 30 µM
- GI50 (SF-295 CNS): 31.9 µM
- TGI (SF-295 CNS): 65.2 µM
- GI50 (UACC-62 melanoma): 26.3 µM
- TGI (UACC-62 melanoma): 93.6 µM
- GI50 (TK-10 renal): 20 µM
- TGI (TK-10 renal): 42.9 µM
- GI50 (MDA-MB-231 breast): 20.5 µM
- TGI (MDA-MB-231 breast): 40.9 µM
- GI50 (SF-268 CNS): 24.5 µM
- TGI (SF-268 CNS): 71 µM
- GI50 (BT-549 breast): 18 µM
- TGI (BT-549 breast): 38.8 µM
- GI50 (M14 melanoma): 93.7 µM
- TGI (M14 melanoma): > 100 µM

SMILES: CCOC(=O)C(O)(NC(=O)c1ccccc1F)C(F)(F)F (stereo unspecified)
- TGI (NCI/ADR-RES ovarian): > 100 µM
- TGI (UO-31 renal): > 100 µM
- TGI (HCT-116 colon): > 100 µM
- TGI (SF-295 CNS): > 100 µM
- TGI (UACC-62 melanoma): > 100 µM
- TGI (TK-10 renal): > 100 µM
- TGI (MDA-MB-231 breast): > 100 µM
- TGI (SF-268 CNS): > 100 µM
- TGI (BT-549 breast): > 100 µM
- TGI (M14 melanoma): > 100 µM

SMILES: CCc1ccc2nc(-c3ccc(O)cc3)sc2c1
- TGI (NCI/ADR-RES ovarian): 32.9 µM
- TGI (UO-31 renal): 24.4 µM
- TGI (HCT-116 colon): 30.4 µM
- TGI (SF-295 CNS): 30.6 µM
- TGI (UACC-62 melanoma): 25.1 µM
- TGI (TK-10 renal): 35.7 µM
- TGI (MDA-MB-231 breast): 29.9 µM
- TGI (SF-268 CNS): 37.8 µM
- TGI (BT-549 breast): 31.1 µM
- TGI (M14 melanoma): 35.5 µM
